The text below walks through data of patent EP0866075B1, “Method to treat microbial infections by uncoupling of phosphotransferase system and appropriate agents therefor” (Arpida AG,, priority 1997, dated 1998).

≈ marks a conversion by molar mass, not a printed value. No end group written: not given here.

As a reminder, the IC50 is the midpoint of a concentration-inhibition curve.

The target of the first experiment is T1, enzyme I (Escherichia coli, UniProt P08839).
T1 construct: 3 µM each of purified HPr and enzyme I (Mao et al., 1995); made in house
Nature of the experiment: biochemical. On the set-up: species or system E. coli.
Details: not given
The text has this: Fig. 2. Assays for the screening, selection and characterization of inhibitory compounds from combinatorial libraries. Reaction products that can be determined experimentally are boxed. The inhibitory compound X can be in soluble form, immobilized on a filamentous phage, or bound to a microtiter well. The transporter for GlcNAc (shaded in grey) contains the IIA, IIB and IIC functional units as domains of a single polypeptide chain. • (a) Binding of Enzyme I to immobilized ligands, e.g. filamentous phages from a phage display library or synthetic peptides from a combinatorial peptide library was detected using [^1251]-Enzyme I and autoradiography. • (b) Phosphorylation by Enzyme I. To identify peptides and filamentous phages displaying a peptide which can be phosphorylated by Enzyme 1, support based peptide libraries and immobilized peptide-displaying phages were incubated over night with enzyme I in the presence of [^32P]phosphoenolpyruvate, and the phosphorylated species were detected with a PhosphorImager. […] A conventional and well established assay to colorimetrically detect the formation of inorganic phosphate has been adapted to the specific needs. The assay can be performed in microtiter plates and quantitated with a microplate photoreader. Another assay to monitor phosphatase activity of soluble compounds is based on the detection of pyruvate which is continuously produced from phosphoenolpyruvate whenever enzyme I is dephosphorylated. The enzyme I-specific phosphatase activity of soluble compounds can be detected from the pyruvate burst. The rate of pyruvate formation is monitored with lactate dehydrogenase and NADH. The assay can be performed in microtiter plates and quantitated with a microplate photoreader. • (d) Inhibition of in vitro PTS activity. The inhibitory activity of soluble compounds can be measured quantitatively in the sugar phosphotransferase assay in the presence of the purified PTS proteins and with [^14C]GlcNAc ([^14C]N-acetyl-glucosamine) or (14C] Glc ([^14C]glucose) as terminal phosphate acceptor (Emi et al., 1982). • (e) Inhibition of PTS activity in bacteria. Compounds that specifically interfere with the PTS can also be detected in bacteria. Indicator E. coli (or any other bacteria) will be plated an two defined minimal salts media containing either glucose or a nonPTS Substrate e.g. lactose as the only carbon source. Compounds from chemical libraries are applied to both cultures.
Inhibition of phosphotransferase activity by soluble peptides. This assay measures the inhibition of enzyme I dependent sugar phosphorylation activity. […] The purified N-acetylglucosamine transporter (II^GlcNAc) of E.coli (Mukhija and Erni, 1996) was used as the sugar specific component. The reaction mixture contained per 100 µl, 100 µg phosphatidyl glycerol from egg yolk (Sigma), 50 mM KPi, pH 7.5, 2.5 mM dithiothreitol, 2.5 mM NaF, 5 mM MgCl2, […] (potassium salt, Sigma), 0.5 mM [U-^14C]GlcNAc (New England Nuclear; 56.3 mCi/mmol, diluted to 1000 cpm/nmol), and 3 µM each of purified HPr and enzyme I (Mao et al., 1995). The reaction was started by addition of 0.1 µg of II^GlcNAc. After incubation for 30 min at 37°C, the reaction was stopped by adding 1 ml ice-cold water. GlcNAc-6-Phosphate was separated from free GlcNAc by anion-exchange chromatography on AG-1-X2 (50-100 mesh, Biorad). Activity is expressed as nmoles of sugar-P formed after 30 min. The HPr concentration was adjusted such that it was rate limiting in the overall phosphotransferase reaction. The inhibitory peptides were added to concentrations of 25 µM to 10 mM. Phosphorylation of GlcNAc in the absences of peptide was taken as 100%.
In turn, KKFHLRK [peptide 1, KKFHLRK] returned an IC50 of 150 µM.

Staying with this experiment, now noted: peptides from support-based combinatorial libraries; 30 min at 37°C, HPr rate limiting.
Turning to KKFALRK [compound 2, KKFALRK], the “inhibition IC50” value is given as “none”.

Staying with this experiment, now noted: peptides from support-based combinatorial libraries; 30 min at 37°C, HPr rate limiting; read-out: inhibition IC50.
With KKFDLRK [compound 3, KKFDLRK], the IC50 came out at 820 µM. The same measure, in the same setting: the same measure for KKWHLRKR [compound 5]: 30 µM. With KGWHKRKK [compound 6], the IC50 was determined as 530 µM. On the same count and under the same terms, the same measure for KKWHKRKK [compound 8]: 440 µM.

Regarding KKWHRRKK [compound 7], the IC50 is 300 µM. The same measure, in the same setting: the same measure for KKFHIRKR [compound 9]: 160 µM.

The experiment is the same for the next values; noted with them: peptides identified by phage display; 30 min at 37°C, HPr rate limiting; read-out: inhibition IC50.
As to SGRKSTRVHHWLLVL [compound 15], the IC50 was 60 µM. The same measure, in the same setting: the same measure for Ac-DGARLHYLF [compound 23]: 7600 µM; for DGARLHYLF [compound 22]: 1200 µM; for KISRHGRPTG [compound 19]: 1070 µM. On the same count and under the same terms, the same measure for MSRHRN [compound 29, MSRHRN]: 760 µM. For the molecule RLHYLF [compound 21, RLHYLF], the IC50 worked out at 375 µM. Regarding RHWSIF [compound 24, RHWSIF], the IC50 amounted to 400 µM. On the same count and under the same terms, the same measure for RHYLLF [compound 26, RHYLLF]: 500 µM; for KISRHGKRGK [compound 18]: 140 µM; for RIHFIPRRGR [compound 20]: 280 µM. Turning to RHITLF [compound 28, RHITLF], the IC50 is 1380 µM.

With GLRFGKTRVHYLVLG [compound 14], the IC50 was 25 µM.

As to RHITSL [compound 27, RHITSL], the IC50 amounted to 650 µM.

Regarding KMSRHRKPGA [compound 16], the IC50 turned out to be 100 µM. Still for that read-out and setting: the same measure for RHRTLF [compound 25, RHRTLF]: 410 µM.

A further experiment has as its system E. coli K-12 UT580. Nature of the experiment: Growth inhibition assay (filter discs on LB soft agar). In kind it is cell-based. To be noted: E. coli K-12 UT580, LB agar, over night at 37°C. From the text: Fig. 4. Growth inhibition of E. coli K12 UT580. […]
Consider KKWHLRKR [compound 5], for which the “growth inhibition MIC” value is 63.0 µM.

Regarding KKFHLRK [peptide 1, KKFHLRK], the “growth inhibition MIC” value was 125.8 µM.

The next experiment has as its system E. coli K-12 UT580. Nature of the experiment: microbe, parasite or virus in culture. As to conditions: Escherichia coli, K12UT580, 24 h, read-out: growth inhibition MIC.
Protocol: Growth inhibition assay. An over night culture of E. coli K-12 UT580 grown in LB-medium was diluted 1:30 into soft agar (0.7% agarose in LB broth) at 40°C, and 3 ml of the diluted cell suspension were spread an LB agar plates. Filter discs (4.4 mm diameter) were placed in regular intervals on the solidified top agar. To each filter was added 10 µl of one of the different peptide stock solutions (20 µM to 80 µM). The agar plates were incubated over night at 37°C. The area of the clear zone around each filter disc was determined. The clear area is taken as a measure for the growth inhibitory activity of the peptide.
Growth inhibition of E. coli K12 UT580. Peptides were added to filter discs and placed onto a cell culture in LB soft agar. The clear zones are indicative of growth inhibition (panel A).
Regarding `CN(C)[C@@H]1C(O)=C(C(N)=O)C(=O)[C@@]2(O)C(O)=C3C(=O)c4c(O)cccc4[C@@](C)(O)[C@H]3C[C@@H]12` [tetracycline], the MIC was found to be 2.5 µM (≈ 1.11 µg/mL).
